Structures are written as SMILES. ≈ marks a conversion by molar mass, not a printed value. Counter-ions that a name gives are not always drawn.

Results on five molecules are retold here after patent US20120046284A1, “Salts and hydrates of 4-[(3-chloro-4-fluoro-phenyl)amino]-6-(cis-4--cyclohexan-1-yloxy)-7-methoxy-quinazoline, their use as a medicament and the preparation thereof” (BOEHRINGER INGELHEIM INTERNATIONAL GMBH, priority 2010, published 2012).

Data set [1] can be described thus: Solubility tests in water (2 hours shaking at ambient temperature, UV spectroscopy; pH of saturated solution). The data set is classed as physicochemical. To be noted: for solubility: in water, 2 hours, ambient temperature; for intrinsic pH of the saturated solution: saturated aqueous solution. How it is done: The solubility of the different crystalline forms of formula (I) or (6) in water is determined as follows: approx. 5 mg of the corresponding form are added to 5 ml of water. The mixture is shaken for 2 hours at ambient temperature in an overhead shaker made by the Heidolph company. Then the undissolved fractions are filtered off through a 0.45 μm PTFE filter. The dissolved fraction in the filtrate is determined by UV spectroscopy. In addition, the pH of the saturated aqueous solution is also measured with a standard pH electrode.

For data set [2], the target named is T1, human EGF-R (Homo sapiens, UniProt P00533).
T1 construct: expressed in transfected cells
T1 sequence (P00533 25-1210): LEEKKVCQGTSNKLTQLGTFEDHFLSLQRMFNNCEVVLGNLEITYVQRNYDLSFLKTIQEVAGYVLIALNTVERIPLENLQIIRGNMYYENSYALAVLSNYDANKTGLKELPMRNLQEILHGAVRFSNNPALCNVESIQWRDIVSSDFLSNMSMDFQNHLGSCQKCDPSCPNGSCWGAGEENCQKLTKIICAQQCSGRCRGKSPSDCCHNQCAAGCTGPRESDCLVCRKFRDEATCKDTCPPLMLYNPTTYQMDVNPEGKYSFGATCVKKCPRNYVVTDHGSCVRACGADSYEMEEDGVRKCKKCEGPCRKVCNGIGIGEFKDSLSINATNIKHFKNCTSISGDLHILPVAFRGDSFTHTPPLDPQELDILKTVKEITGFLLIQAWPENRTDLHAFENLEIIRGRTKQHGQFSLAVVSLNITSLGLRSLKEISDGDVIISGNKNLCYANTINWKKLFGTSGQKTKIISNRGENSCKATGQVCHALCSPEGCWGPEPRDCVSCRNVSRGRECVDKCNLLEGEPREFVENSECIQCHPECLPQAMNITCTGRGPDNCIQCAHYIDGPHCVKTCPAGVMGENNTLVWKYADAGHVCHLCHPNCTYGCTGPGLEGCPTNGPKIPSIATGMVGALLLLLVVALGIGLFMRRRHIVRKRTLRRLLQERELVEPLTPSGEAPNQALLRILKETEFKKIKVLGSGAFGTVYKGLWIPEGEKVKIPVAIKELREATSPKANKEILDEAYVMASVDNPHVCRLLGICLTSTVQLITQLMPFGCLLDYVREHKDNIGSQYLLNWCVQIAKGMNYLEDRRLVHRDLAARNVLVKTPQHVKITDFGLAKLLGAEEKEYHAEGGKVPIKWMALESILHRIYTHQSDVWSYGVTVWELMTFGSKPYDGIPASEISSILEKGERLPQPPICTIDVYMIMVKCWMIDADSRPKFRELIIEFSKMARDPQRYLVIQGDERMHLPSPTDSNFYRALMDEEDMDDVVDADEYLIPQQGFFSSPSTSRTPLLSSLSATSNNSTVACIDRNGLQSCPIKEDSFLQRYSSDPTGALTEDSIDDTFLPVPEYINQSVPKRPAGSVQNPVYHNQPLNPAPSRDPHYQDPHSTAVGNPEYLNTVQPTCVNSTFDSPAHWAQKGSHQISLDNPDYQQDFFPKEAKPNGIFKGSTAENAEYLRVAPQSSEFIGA
Nature of the data set: Inhibition of the EGFR-dependent proliferation (EGF-stimulated murine haematopoietic cell line expressing human EGF-R). Particulars: 20 ng/ml human EGF, 48 hours at 37° C. The format is cell-based. How it is done: A murine haematopoietic cell line is genetically modified so as to express functional human EGF-R. The proliferation of this cell line can therefore be stimulated by EGF.
The test is carried out as follows:
The cells are cultivated in RPMI/1640 medium. The proliferation is stimulated with 20 ng/ml of human EGF (Promega). To investigate the inhibitory activity of the compounds according to the invention these compounds are dissolved in 100% dimethylsulphoxide (DMSO) and added to the cultures in various dilutions, the maximum DMSO concentration being 1%. The cultures are incubated for 48 hours at 37° C.
In order to determine the inhibitory activity of the compound (I.1) according to the invention the relative cell number is measured in O.D. units using the Cell Titer 96TM AQueous Non-Radioactive Cell Proliferation Assay (Promega). The relative cell number is calculated as a percentage of the control and the concentration of active substance which inhibits the proliferation of the cells by 50% (IC50) is derived therefrom.

Data set [3] can be described thus: Water absorption tests (DVS, hygroscopic characteristics). The format is physicochemical. How it is done:
A DVS-1 made by Surface Measurement Systems (=SMS) is used to investigate the hygroscopic characteristics: the following humidity profiles are used: from 10-90% r.h. in steps of 10%, absorption and desorption profiles are recorded, typical weights: 10-20 mg The corresponding diagrams (kinetic and isothermic plot) of the different forms are shown in FIGS. 1c+d-5c+d.

Setting [4] is: listed as anhydrous free base (6).
[5] abbreviates: listed as hemihydrochloride sesquihydrate (I.1).
Setting [6] is: listed as monohydrate free base (I.2).

Regarding `COc1cc2ncnc(Nc3ccc(F)c(Cl)c3)c2cc1O[C@H]1CC[C@@H](N(C)C(=O)N2CCOCC2)CC1` [(6), 4-[(3-chloro-4-fluoro-phenyl)amino]-6-(cis-4-{N-[(morph-1-olin-4-yl)carbonyl]-N-methyl-amino}-cyclohexan-1-yloxy)-7-methoxy-quinazoline], in data set [1] (setting [4]), the solubility is less than 1 µg/mL and the “intrinsic pH of the saturated solution” value is recorded as 5.9.

In data set [2], `COc1cc2ncnc(Nc3ccc(F)c(Cl)c3)c2cc1O[C@H]1CC[C@@H](N(C)C(=O)N2CCOCC2)CC1` [Compound (I.1), 4-[(3-chloro-4-fluoro-phenyl)amino]-6-(cis-4-{N-[(morph-1-olin-4-yl)carbonyl]-N-methyl-amino}-cyclohexan-1-yloxy)-7-methoxy-quinazoline] yielded an IC50 of 10 nM. Moreover, in data set [1] (setting [5]), the solubility is 170 µg/mL (≈ 312 µM) and the “intrinsic pH of the saturated solution” value amounted to 6.5. The “hygroscopic characteristics: change in particle size or phase depending on the relative humidity” value in data set [3] is “no change in particle size or phase change takes place”.

Regarding `COc1cc2ncnc(Nc3ccc(F)c(Cl)c3)c2cc1O[C@H]1CC[C@@H](N(C)C(=O)N2CCOCC2)CC1` [Compound (I.2), 4-[(3-chloro-4-fluoro-phenyl)amino]-6-(cis-4-{N-[(morph-1-olin-4-yl)carbonyl]-N-methyl-amino}-cyclohexan-1-yloxy)-7-methoxy-quinazoline], in data set [1] (setting [6]), the solubility is less than 1 µg/mL and the “intrinsic pH of the saturated solution” value was determined as 5.9.

Take `COc1cc2ncnc(Nc3ccc(F)c(Cl)c3)c2cc1O[C@H]1CC[C@@H](N(C)C(=O)N2CCOCC2)CC1` [high-melting form monohydrochloride (I.3)] [4-[(3-chloro-4-fluoro-phenyl)amino]-6-(cis-4-{N-[(morph-1-olin-4-yl)carbonyl]-N-methyl-amino}-cyclohexan-1-yloxy)-7-methoxy-quinazoline]: in data set [1], the solubility came out at 41 µg/mL and the “intrinsic pH of the saturated solution” value stood at 3.3.

Take `COc1cc2ncnc(Nc3ccc(F)c(Cl)c3)c2cc1O[C@H]1CC[C@@H](N(C)C(=O)N2CCOCC2)CC1` [low-melting form monohydrochloride (I.3), 4-[(3-chloro-4-fluoro-phenyl)amino]-6-(cis-4-{N-[(morph-1-olin-4-yl)carbonyl]-N-methyl-amino}-cyclohexan-1-yloxy)-7-methoxy-quinazoline]: in data set [1], the solubility came to 47 µg/mL and the “intrinsic pH of the saturated solution” value was determined as 4.0.

A word on the solubility: it is the concentration that dissolves in the medium under given conditions. High values mean much dissolved substance, low ones little dissolved substance. A word on the IC50: it is the concentration at which inhibition is half-maximal. A lower IC50 goes with greater potency in that assay.
